# According to PubChem BioAssay (NCI):
#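 Assay format: 96-well plates, 48-hour exposure. At the TGI there is no net growth.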
# Assays:
# Assay in all cases: DTP human tumour cell line panel, 48 h
# [1] = test system: OVCAR-8 ovarian
# [2] = test system: OVCAR-5 ovarian
# [3] = test system: SK-MEL-2 melanoma
# [4] = test system: OVCAR-4 ovarian
# [5] = test system: SR leukemia
# [6] = test system: SK-MEL-5 melanoma
# [7] = test system: HCT-116 colon
# [8] = test system: MCF7 breast
# [9] = test system: HCT-15 colon
# [10] = test system: DU-145 prostate
# [11] = test system: NCI-H226 lung
SMILES,TGI [1] [µM],TGI [2] [µM],TGI [3] [µM],TGI [4] [µM],TGI [5] [µM],TGI [6] [µM],TGI [7] [µM],TGI [8] [µM],TGI [9] [µM],TGI [10] [µM],TGI [11] [µM]
CCO/C=N/C1=C(C#N)SC2=N/C(=C\c3ccccc3)C(=O)N21,> 100,> 100,> 100,> 100,> 93.8,> 100,> 100,> 100,> 100,> 100,> 100
C=C1C[C@H](O)[C@H](Br)C(C)(C)C12CCC(C)(Cl)C(Br)C2 (some centres not stated),15.1,4.25,6.55,7.95,19.7,12.2,16.1,11.2,19.3,15.8,12.7
O=C1CC(NCc2ccccc2)c2c(Cl)sc(Cl)c21 (configuration not stated),48.5,> 100,51.5,> 87.3,> 100,> 100,33.1,50.3,46.9,> 66.5,> 63.5
COc1ccc(-c2c(C#N)c(S)n(NS(=O)(=O)c3ccccc3)c(=O)c2C#N)cc1,> 100,> 100,> 100,> 100,80.3,> 100,> 100,> 100,> 100,> 100,> 100
CC(=O)Oc1ccc2c3c1O[C@H]1[C@H](O)CC[C@@]4(O)[C@@H](C2)N(C)CC[C@]314,> 100,> 100,> 100,> 100,> 100,> 100,> 100,> 100,> 100,> 100,> 100
CCOC(=O)NN(C(=O)OCC)c1c(C)cc(C)cc1C,> 100,> 100,> 100,> 100,> 100,> 100,> 100,> 100,> 100,> 100,> 100
c1ccc(CSC2(SCc3ccccc3)CCCCC2)cc1,> 10,–,> 10,> 10,> 10,> 10,> 10,> 10,> 10,> 10,> 10
O=C(c1ccccc1)N1C(=S)N(c2ccccn2)C(=Nc2ccccc2)C1=Nc1ccccc1,> 100,> 44.3,34.6,32.5,> 63,> 50,> 77.3,> 100,14.9,> 100,> 100
CCOC(=O)c1nc2ccc(C(F)(F)F)cc2nc1Oc1ccc(C(=O)OC)cc1,> 100,–,> 100,> 100,> 100,> 100,> 100,> 100,> 100,> 100,> 100
COC(=O)/C=C1/OC(c2ccc(OC)cc2)=C(Cl)C1=O,28.2,31.6,33.6,30.1,9.53,27.2,26.5,25,33.9,36.6,51.1
O=C(c1cc2c(c3ccccc13)NC1(CCCCC1)N=C2C(F)(F)F)C(F)(F)F,15.8,21.5,5.87,14.9,13.2,18.2,12.6,12.2,16.7,19.6,11
CSc1nc2c(c(=O)[nH]1)N=C(c1ccccc1)CC(c1ccccc1)N2 (configuration not stated),> 100,> 100,76.7,95.2,> 100,88.4,97.5,36,–,> 100,> 100
CCOP(=O)(OCC)OC1c2[nH]cc(C(=O)OCc3ccccc3)c2-c2cc(C(=O)OC)[nH]c2C1OC (configuration not stated),> 62.8,> 96.1,> 76.5,> 100,> 100,> 82.8,> 85.4,> 100,> 100,89.8,58.3
ON=C(CC(O)(C(F)(F)Cl)C(F)(F)Cl)CC(O)(C(F)(F)Cl)C(F)(F)Cl,> 10,–,7.84,> 10,> 10,> 10,> 10,> 10,> 10,> 10,> 10
CC1=C(C(=O)N[C@@H](CC(C)C)C(=O)O)N2C(=O)[C@@H](NC(=O)C(N)c3ccccc3)[C@H]2SC1 (some centres not stated),> 100,> 100,> 100,> 100,> 100,> 100,–,> 100,> 100,> 100,> 100
COc1ccc(/C=C2\C[C@H]3[C@@H]4CCC5=CC(=O)CC[C@]5(C)[C@H]4CC[C@]3(C)C2=O)cc1OC,> 100,> 100,43.6,> 100,7.4,5.45,> 100,> 100,> 100,> 100,> 100
O=C(N/N=C/c1ccccc1)c1cccc2nc3ccccc3nc12,> 100,> 100,> 100,> 100,> 100,18,> 100,> 100,> 100,> 100,> 100
Cc1ccc(N(C)S(=O)(=O)c2ccccc2[N+](=O)[O-])cc1,> 100,> 100,> 100,> 100,> 100,–,> 100,> 100,> 100,> 100,> 100
